Test [1] deals with T1, bovine adrenal gland receptor preparations (Bos taurus, UniProt P25104).
T1 construct: aliquots of a membrane preparation of bovine adrenal cortex in tris buffer; from tissue; host or cells: bovine adrenal cortex membranes
T1 sequence (P25104 1-359): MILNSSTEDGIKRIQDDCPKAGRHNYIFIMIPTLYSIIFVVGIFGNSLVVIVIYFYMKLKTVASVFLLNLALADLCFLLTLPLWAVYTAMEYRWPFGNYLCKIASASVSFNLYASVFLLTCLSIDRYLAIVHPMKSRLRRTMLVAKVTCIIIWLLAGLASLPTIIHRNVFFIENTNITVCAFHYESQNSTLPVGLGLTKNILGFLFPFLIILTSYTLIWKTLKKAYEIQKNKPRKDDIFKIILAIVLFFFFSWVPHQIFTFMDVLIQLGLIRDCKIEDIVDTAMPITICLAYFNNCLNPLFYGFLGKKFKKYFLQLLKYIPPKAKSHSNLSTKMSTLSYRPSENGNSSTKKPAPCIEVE
The experiment in a line: inhibition of angiotensin II bonding to bovine adrenal gland receptor preparations. Format: binding. As to the method:
After 45 minutes the incubation was stopped by rapid filtration through glass fibre filters. The radioactivity associated with the filter was determined in a […] at a counting efficiency of 80%.

The target of a further test is T2, angiotensin II (Rattus norvegicus, UniProt P25095).
T2 construct: The measured parameter is the increase in the arterial blood pressure; from tissue; host or cells: whole anaesthetised rat with destroyed spine, in vivo (vascular receptors)
T2 sequence (P25095 1-359): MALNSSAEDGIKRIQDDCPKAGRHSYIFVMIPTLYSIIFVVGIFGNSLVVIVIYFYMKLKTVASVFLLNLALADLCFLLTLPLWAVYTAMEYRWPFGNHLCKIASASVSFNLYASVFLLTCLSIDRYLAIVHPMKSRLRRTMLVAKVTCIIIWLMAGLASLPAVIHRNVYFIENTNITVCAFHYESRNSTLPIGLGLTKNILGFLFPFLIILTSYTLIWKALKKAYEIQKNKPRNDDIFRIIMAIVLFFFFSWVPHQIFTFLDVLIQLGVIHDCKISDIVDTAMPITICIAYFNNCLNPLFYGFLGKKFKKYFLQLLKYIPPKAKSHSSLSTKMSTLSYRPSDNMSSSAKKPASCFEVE
The experiment in a line: displacement of angiotensin II dose-effect curves (increase in arterial blood pressure) in rats, pA2. Format: in vivo. The settings on record: average, angiotensin II antagonism in rats, 10, 20 and 30 mg/kg i.v. Here is the method:
a) rats (male, 180-220 g) are anaesthetised using sodium hexobarbital (150 mg/kg i.p.). After the anaesthetic has taken effect, a tracheal cannula is inserted, the spine is destroyed in the animals and then they are immediately respirated artifically using a respiratory pump. The arterial blood pressure is recorded via a cannula in the carotid artery by means of a Bell & Howell pressure sensor. Substances are administered via a cannula in the jugular vein. Test substances are administered in three doses (10, 20 and 30 mg/kg i.v.), wherein one dose of substance is tested per animal. […] The measured parameter is the increase in the arterial blood pressure. These dose-effect graphs are compared with standard graphs for angiotensin II without test substances. A computer program determines the displacements to the right of the dose-effect graphs for angiotensin II as a result of test substances, and calculates corresponding pA2 values for the test substances.

Among the data in patent publication US5541229A, “Benzimidazoles and medicaments containing these compounds” (Dr. Karl Thomae GmbH, priority 1989, dated 1996) are IC50 and pA2 values values, retold here.

Where two headings read alike, the source gives them in different places.

As a reminder, the IC50 is the concentration that inhibits the measured activity by half. Lower therefore signals greater potency in that assay. In test [1], `CCCCCCNC(=O)N(CCc1ccccc1)c1ccc2nc(CCCC)n(Cc3ccc(-c4ccccc4C(=O)O)cc3)c2c1` [AA] came in with an IC50 of 100 nM.

Consider `CCCCCCNC(=O)N(Cc1ccccc1)c1ccc2nc(CCCC)n(Cc3ccc(-c4ccccc4C(=O)O)cc3)c2c1` [A], for which, at angiotensin II, the pA2 values is 7,23. In test [1], this molecule displayed an IC50 of 29 nM.

In test [1], `CCCCc1nc2ccc(NC(=O)C3CCCC3)cc2n1Cc1ccc(-c2ccccc2C(=O)O)cc1` [BB] gave an IC50 of 46 nM.

As for `CCCCc1nc2ccc(N(CCCC)C(=O)NC3CCCCC3)cc2n1Cc1ccc(-c2ccccc2C(=O)O)cc1` [B], the pA2 values on angiotensin II was 6,63. For the same molecule, the half-maximal inhibitory concentration (IC50) in test [1] came out at 29 nM.

Consider `CCCCc1nc2ccc(N3C(=O)[C@H]4CCCC[C@H]4C3=O)cc2n1Cc1ccc(-c2ccccc2-c2nn[nH]n2)cc1` [CC], for which the pA2 values on angiotensin II is listed as 8,54. Besides, the midpoint of inhibition in test [1], the IC50, lay at 1000 nM.

For `CCCCc1nc2ccc(N(CC)C(=O)NC3CCCCC3)cc2n1Cc1ccc(-c2ccccc2C(=O)O)cc1` [C], on angiotensin II, the pA2 values is given as 6,36. This molecule returned a concentration for half-maximal inhibition (IC50) in test [1] of 31 nM.

On to `CCCCc1nc2ccc(N(CCC)C(=O)NC3CCCCC3)cc2n1Cc1ccc(-c2ccccc2C(=O)O)cc1` [D], for which the pA2 values at angiotensin II is reported as 6,59. Inhibition in test [1] was half-maximal at 44 nM (IC50).

For `CCCCc1nc2ccc(N(C)C(=O)NC3CCCCC3)cc2n1Cc1ccc(-c2ccccc2C(=O)O)cc1` [E], the pA2 values at angiotensin II is listed as 7,34. The concentration for half-maximal inhibition (IC50) in test [1] was 46 nM.

In the case of `CCCCCN(C(=O)NC1CCCCC1)c1ccc2nc(CCCC)n(Cc3ccc(-c4ccccc4C(=O)O)cc3)c2c1` [G], the pA2 values at angiotensin II is recorded as 6,89. Also, the IC50 in test [1] was 46 nM.

With `CCCCc1nc2ccc(N(Cc3ccccc3)C(=O)NC)cc2n1Cc1ccc(-c2ccccc2C(=O)O)cc1` [H], on angiotensin II, the pA2 values is 6,48. In test [1], this molecule came in with an IC50 of 51 nM.

Turning to `CCCCc1nc2ccc(N3Cc4ccccc4C3=O)cc2n1Cc1ccc(-c2ccccc2C(=O)O)cc1` [I], the pA2 values on angiotensin II is reported as 6,12. The same molecule came in with an IC50 in test [1] of 51 nM.

Turning to `CCCCc1nc2ccc(N(Cc3ccccc3)C(=O)NC3CCCCC3)cc2n1Cc1ccc(-c2ccccc2C(=O)O)cc1` [J], the pA2 values on angiotensin II is listed as 7,38. Besides, the half-inhibitory concentration (IC50) in test [1] was found to be 54 nM.

For the molecule `CCCCC(=O)Nc1ccc2nc(CCCC)n(Cc3ccc(-c4ccccc4C(=O)O)cc3)c2c1` [K], the pA2 values on angiotensin II is recorded as 6,38. In test [1], this molecule registered an IC50 of 57 nM.

As to `CCCCc1nc2ccc(NC(=O)CC)cc2n1Cc1ccc(-c2ccccc2C(=O)O)cc1` [L], the pA2 values on angiotensin II is listed as 6,04. The same molecule had an IC50 in test [1] of 58 nM.

For `CCCCc1nc2ccc(NC(=O)C(C)C)cc2n1Cc1ccc(-c2ccccc2C(=O)O)cc1` [M], the pA2 values at angiotensin II was 6,87. The half-inhibitory concentration (IC50) in test [1] was determined as 61 nM.

For the molecule `CCCCc1nc2ccc(NC(=O)NC3CCCCO3)cc2n1Cc1ccc(-c2ccccc2C(=O)O)cc1` (stereo not drawn) [N], the pA2 values at angiotensin II was 7,02. This molecule had a half-maximal inhibitory concentration (IC50) in test [1] of 65 nM.

Consider `CCCCNC(=O)Nc1ccc2nc(CCCC)n(Cc3ccc(-c4ccccc4C(=O)O)cc3)c2c1` [O], for which the pA2 values on angiotensin II is recorded as 6,46. The molecule also gave a half-inhibitory concentration (IC50) in test [1] of 65 nM.

With `CCCCc1nc2ccc(NC(=O)CCC)cc2n1Cc1ccc(-c2ccccc2C(=O)O)cc1` [P], the pA2 values on angiotensin II is 6,46. The same molecule gave an IC50 in test [1] of 67 nM.

Take `CCCCc1nc2ccc(N(Cc3ccccc3)C(=O)OCC)cc2n1Cc1ccc(-c2ccccc2C(=O)O)cc1` [Q]: the pA2 values on angiotensin II was 6,83. This molecule also yielded a half-inhibitory concentration (IC50) in test [1] of 68 nM.

For `CCCCc1nc2ccc(NC(=O)N(C)C)cc2n1Cc1ccc(-c2ccccc2C(=O)O)cc1` [R], the pA2 values on angiotensin II is on record as 7,16. The molecule also came in with an IC50 in test [1] of 72 nM.

On to `CCCCCCN(C(=O)NC1CCCCC1)c1ccc2nc(CCCC)n(Cc3ccc(-c4ccccc4C(=O)O)cc3)c2c1` [S], for which, at angiotensin II, the pA2 values was 6,69. For the same molecule, the half-inhibitory concentration (IC50) in test [1] worked out at 72 nM.

Regarding `CCCCc1nc2ccc(NC(=O)NCCCCCO)cc2n1Cc1ccc(-c2ccccc2C(=O)O)cc1` [T], the pA2 values on angiotensin II is 7,20. This molecule also gave an IC50 in test [1] of 76 nM.

As for `CCCCCN(C(=O)NC)c1ccc2nc(CCCC)n(Cc3ccc(-c4ccccc4C(=O)O)cc3)c2c1` [U], the pA2 values at angiotensin II is recorded as 7,20. In test [1], this molecule came in with an IC50 of 79 nM.

Take `CCCCc1nc2ccc(NC(=O)C3CCCCC3)cc2n1Cc1ccc(-c2ccccc2C(=O)O)cc1` [V]: on angiotensin II, the pA2 values is 7,26. The molecule further returned an IC50 in test [1] (50% inhibition of the specific 125I-angiotensin II (50 pM) bonding, bovine adrenal cortex membranes, 45 minutes) of 84 nM.

Turning to `CCCCNC(=O)N(C)c1ccc2nc(CCCC)n(Cc3ccc(-c4ccccc4C(=O)O)cc3)c2c1` [W], at angiotensin II, the pA2 values is on record as 6,28. Besides, the IC50 in test [1] was 86 nM.

With `CCCCc1nc2c(C)ccc(O)c2n1Cc1ccc(-c2ccccc2-c2nn[nH]n2)cc1` [X], the pA2 values at angiotensin II is 6,57. In addition, it took 99 nM to reach half-maximal inhibition in test [1] (IC50).

For the molecule `CCCCc1nc2ccc(N3C(=O)[C@H]4CCCC[C@H]4C3=O)cc2n1Cc1ccc(-c2ccccc2C(=O)O)cc1` [Y], at angiotensin II, the pA2 values is recorded as 6,97. The molecule further gave an IC50 in test [1] of 150 nM.

With `CCCCc1nc2ccc(N(Cc3ccccc3)C(=O)N(C)C)cc2n1Cc1ccc(-c2ccccc2C(=O)O)cc1` [Z], the pA2 values on angiotensin II was 7,15. The half-maximal inhibitory concentration (IC50) in test [1] is 133 nM.
